Data on two compounds can be found in US20230309554A1, “Polymer Carriers for Delivery of Agrochemicals in Crop Plants” (Carnegie Mellon University, priority 2020, published 2023).

SMILES strings stand for the structures.

Data set [1] deals with tomato leaves. The note with it: in vivo.
Experimental: Tracer loading into star polymers. To load CV into star polymers, 10 mg of star polymer was dissolved into 5 mL of Milli Q water with pH adjusted to 7.5 by adding aliquots of 0.1M HCl and 0.1 M NaOH. 2 mg of CV was added into the star polymer solution and the mixture was vortex mixed for 24 h. The resulting solution was dialyzed against 2 L of Milli Q water for 2 cycles to remove free CV. After dialysis, the sample volume was adjusted to 20 mL to get a 0.5 g L^−1 CV loaded star polymer solution. Spreading agent Silwet L-77 was added into the star polymer solution at 0.1% (v/v) before foliar application. 20 μL of the CV loaded star polymer was applied onto tomato leaves by drop deposition.
This enhanced resolution dark-field microscope system (BX51, Olympus, USA) was equipped with a 150 W halogen light source (Fiber-Lite, Dolan-Jenner, USA) and a hyperspectral camera (CytoViva hyperspectral imaging system 1.4). […] Hyperspectral images were acquired using 100% light source intensity and 0.1 to 0.25 s acquisition per line and corrected for the lamp contribution. […]
RSP uptake and distribution in tomato leaves. RSP interactions with the plant leaf after foliar application was assessed by dark field hyperspectral imaging (DF-HSI) of crystal violet (CV) loaded RSP in tomato leaves. […]
The subject of data set [2] is tomato plants. Description: Leaf carbon assimilation and chlorophyll fluorescence under combined heat and excess light stress. To be noted: after heat and light stress 1.5 h. It is filed as in vivo, Solanum lycopersicum. As for the experimental part:
Plant growth. […] The sterilized seeds were germinated in petri-dish on water-soaked filter paper under dark for 10 days. Afterwards, the seedlings were transplanted to 100 mL plastic cups. Each seedling was grown hydroponically using 1⁄4 strength Hoagland's solution aerated using air pumps. […] Leaf carbon assimilation rate and chlorophyll fluorescence. Plant leaf carbon assimilation and chlorophyll fluorescence was measured by a Li-Cor Li-6800 portable photosynthesis system. […] Combined heat and excess light stress. The carbon (A-Ci) and light response (A-PAR) curves of treated leaves were measured before stress conditions. […] The carbon and light response curves were measured again and compared with the curve acquired before stress. […] Light adapted ([…]) chlorophyll fluorescent test were also performed before and after stress conditions. The A-Ci curves were analyzed according to previously reported model for C3 plants: […]

Consider `CN(C)c1ccc(C(=C2C=CC(=[N+](C)C)C=C2)c2ccc(N(C)C)cc2)cc1` [CV, crystal violet], for which the “Location in tomato leaf” value in data set [1] is on record as “primarily found on the leaf epidermis, with a limited amount inside the mesophyll”. Turning to `[Cl-].[Cl-].[Mg+2]` [Mg^2+], in data set [2], the “Photosynthesis enhancement compared to control leaves” value is listed as “No significant photosynthesis enhancement”.
